From US11753407B2, “Compounds for treating spinal muscular atrophy” (PTC Therapeutics, Inc., priority 2012, dated 2023)

Tests used:
[1] = system: Smn protein in SMA patient fibroblast cells (GM03813); assay: Smn protein assay in cultured cells (SMN HTRF); format: cell-based, human; conditions: SMA patient fibroblast cells, 48 hours; for maximum fold (Fold) increase of Smn protein: 7-point concentration data, fold relative to vehicle control; for EC1.5x for Smn protein expression: 7-point concentration curve, SMN HTRF, concentration producing 1.5 times Smn protein vs DMSO vehicle control
How it was run: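 Smn protein abundance in treated SMA fibroblasts was measured by HTRF after 48 h compound exposure. The reported EC1.5× is the concentration producing 1.5 times vehicle Smn levels.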

[2] = system: SMN2 minigene mRNA (SMN2-A minigene) in HEK293H cells; assay: SMN2 minigene mRNA splicing RT-qPCR assay in cultured cells; format: cell-based, human; conditions: Homo sapiens, HEK293-H; concentration increasing full length SMN2 mRNA 1.5-fold relative to vehicle-treated cells; HEK293H cells with SMN2-A minigene, 24 hours, 7-point concentration data; read-out: EC1.5x for production of full length SMN2 mRNA
How it was run: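 Potency reflects the concentration that lifts full-length SMN2 minigene mRNA 1.5-fold above vehicle in stably transfected HEK293H cells after 24 h of treatment. Transcript abundance came from RT-qPCR as (1+E)^−Ct, normalized to GAPDH; endogenous SMN1/SMN2 are not detected.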

Structure (SMILES): COc1ccc(-c2cc(=O)n3cc(N4CC[C@@H](N(C)C)C4)ccc3n2)cc1F [Compound 282, 7-[(3R)-3-(dimethylamino)pyrrolidin-1-yl]-2-(3-fluoro-4-methoxyphenyl)-4H-pyrido[1,2-a]pyrimidin-4-one]
- maximum fold (Fold) increase of Smn protein [1]: ** (a fold increase between >1.2 and ≤1.35 is indicated by two stars (**))
- EC (1.5-fold increase) [2]: 0.3 to 1 µM
- melting point: 188 to 191 °C

Structure (SMILES): Cc1nc2ccc(-c3cc(=O)n4cc(N5CCNC(C)(C)C5)ccc4n3)cc2s1 [Compound 283, 7-(3,3-dimethylpiperazin-1-yl)-2-(2-methyl-1,3-benzothiazol-6-yl)-4H-pyrido[1,2-a]pyrimidin-4-one]
- EC1.5x for Smn protein expression [1]: **** (an EC1.5x≤0.3 μM is indicated by four stars (****))
- maximum fold (Fold) increase of Smn protein [1]: **** (a fold increase between >1.5 and ≤1.65 is indicated by four stars (****))
- EC (1.5-fold increase) [2]: < 0.1 µM
- melting point: 200 to 202 °C

Structure (SMILES): Cc1nc2ccc(-c3cc(=O)n4cc(N5CCN6CCC[C@@H]6C5)ccc4n3)cc2s1 [Compound 284, 7-[(8aR)-hexahydropyrrolo[1,2-a]pyrazin-2(1H)-yl]-2-(2-methyl-1,3-benzothiazol-6-yl)-4H-pyrido[1,2-a]pyrimidin-4-one]
- EC1.5x for Smn protein expression [1]: *** (an EC1.5× between >0.3 μM and ≤1 μM is indicated by three stars (***))
- maximum fold (Fold) increase of Smn protein [1]: **** (a fold increase between >1.5 and ≤1.65 is indicated by four stars (****))
- EC (1.5-fold increase) [2]: 0.3 to 1 µM
- melting point: 254 to 256 °C

Structure (SMILES): Cc1nc2ccc(-c3cc(=O)n4cc(OC5CCNCC5)ccc4n3)cc2s1 [Compound 286, 2-(2-methyl-1,3-benzothiazol-6-yl)-7-(piperidin-4-yloxy)-4H-pyrido[1,2-a]pyrimidin-4-one]
- EC1.5x for Smn protein expression [1]: *** (an EC1.5× between >0.3 μM and ≤1 μM is indicated by three stars (***))
- maximum fold (Fold) increase of Smn protein [1]: **** (a fold increase between >1.5 and ≤1.65 is indicated by four stars (****))
- EC (1.5-fold increase) [2]: 0.3 to 1 µM
- melting point: 218 to 220 °C

Structure (SMILES): Cc1cn2cc(-c3cc(=O)n4cc(N5CCNCC5)ccc4n3)cc(Cl)c2n1 [Compound 287, 2-(8-chloro-2-methylimidazo[1,2-a]pyridin-6-yl)-7-(piperazin-1-yl)-4H-pyrido[1,2-a]pyrimidin-4-one]
- EC1.5x for Smn protein expression [1]: **** (an EC1.5x≤0.3 μM is indicated by four stars (****))
- maximum fold (Fold) increase of Smn protein [1]: ***** (a fold increase >1.65 is indicated by five stars (*****))
- EC (1.5-fold increase) [2]: < 0.1 µM
- melting point: 245 to 251 °C

Structure (SMILES): Cc1cn2cc(-c3cc(=O)n4cc(N5C[C@@H](C)N[C@@H](C)C5)ccc4n3)cc(Cl)c2n1 [Compound 288, 2-(8-chloro-2-methylimidazo[1,2-a]pyridin-6-yl)-7-[(3R,5S)-3,5-dimethylpiperazin-1-yl]-4H-pyrido[1,2-a]pyrimidin-4-one]
- EC1.5x for Smn protein expression [1]: **** (an EC1.5x≤0.3 μM is indicated by four stars (****))
- maximum fold (Fold) increase of Smn protein [1]: ***** (a fold increase >1.65 is indicated by five stars (*****))
- EC (1.5-fold increase) [2]: < 0.1 µM
- melting point: 289 to 295 °C

Structure (SMILES): Cc1cn2cc(-c3cc(=O)n4cc(N5CCCN(C)CC5)ccc4n3)cc(Cl)c2n1 [Compound 289, 2-(8-chloro-2-methylimidazo[1,2-a]pyridin-6-yl)-7-(4-methyl-1,4-diazepan-1-yl)-4H-pyrido[1,2-a]pyrimidin-4-one]
- EC1.5x for Smn protein expression [1]: **** (an EC1.5x≤0.3 μM is indicated by four stars (****))
- maximum fold (Fold) increase of Smn protein [1]: **** (a fold increase between >1.5 and ≤1.65 is indicated by four stars (****))
- EC (1.5-fold increase) [2]: < 0.1 µM
- melting point: 239 to 244 °C

Structure (SMILES): Cc1cn2cc(-c3cc(=O)n4cc(N5CCN[C@H](C)C5)ccc4n3)cc(Cl)c2n1 [Compound 290, 2-(8-chloro-2-methylimidazo[1,2-a]pyridin-6-yl)-7-[(3R)-3-methylpiperazin-1-yl]-4H-pyrido[1,2-a]pyrimidin-4-one]
- EC1.5x for Smn protein expression [1]: **** (an EC1.5x≤0.3 μM is indicated by four stars (****))
- maximum fold (Fold) increase of Smn protein [1]: ***** (a fold increase >1.65 is indicated by five stars (*****))
- EC (1.5-fold increase) [2]: < 0.1 µM
- melting point: 236 to 239 °C

Structure (SMILES): Cc1cn2cc(-c3cc(=O)n4cc(N5CCN[C@@H](C)C5)ccc4n3)cc(Cl)c2n1 [Compound 291, 2-(8-chloro-2-methylimidazo[1,2-a]pyridin-6-yl)-7-[(3S)-3-methylpiperazin-1-yl]-4H-pyrido[1,2-a]pyrimidin-4-one]
- EC1.5x for Smn protein expression [1]: **** (an EC1.5x≤0.3 μM is indicated by four stars (****))
- maximum fold (Fold) increase of Smn protein [1]: ***** (a fold increase >1.65 is indicated by five stars (*****))
- EC (1.5-fold increase) [2]: < 0.1 µM
- melting point: 236 to 239 °C

Structure (SMILES): Cc1cn2cc(-c3cc(=O)n4cc(N5CCN6CCC[C@@H]6C5)ccc4n3)cc(Cl)c2n1 [Compound 292, 2-(8-chloro-2-methylimidazo[1,2-a]pyridin-6-yl)-7-[(8aR)-hexahydropyrrolo[1,2-a]pyrazin-2(1H)-yl]-4H-pyrido[1,2-a]pyrimidin-4-one]
- EC1.5x for Smn protein expression [1]: **** (an EC1.5x≤0.3 μM is indicated by four stars (****))
- maximum fold (Fold) increase of Smn protein [1]: **** (a fold increase between >1.5 and ≤1.65 is indicated by four stars (****))
- EC (1.5-fold increase) [2]: < 0.1 µM
- melting point: 274 to 280 °C

Structure (SMILES): Cc1cn2cc(-c3cc(=O)n4cc(N5CCN6CCC[C@H]6C5)ccc4n3)cc(Cl)c2n1 [Compound 293, 2-(8-chloro-2-methylimidazo[1,2-a]pyridin-6-yl)-7-[(8aS)-hexahydropyrrolo[1,2-a]pyrazin-2(1H)-yl]-4H-pyrido[1,2-a]pyrimidin-4-one]
- EC1.5x for Smn protein expression [1]: **** (an EC1.5x≤0.3 μM is indicated by four stars (****))
- maximum fold (Fold) increase of Smn protein [1]: ***** (a fold increase >1.65 is indicated by five stars (*****))
- EC (1.5-fold increase) [2]: < 0.1 µM
- melting point: 269 to 275 °C

Structure (SMILES): Cc1cn2cc(-c3cc(=O)n4cc(N5CCN(C)[C@@H](C)C5)ccc4n3)cc(F)c2n1 [Compound 295, 7-[(3S)-3,4-dimethylpiperazin-1-yl]-2-(8-fluoro-2-methylimidazo[1,2-a]pyridin-6-yl)-4H-pyrido[1,2-a]pyrimidin-4-one]
- EC1.5x for Smn protein expression [1]: **** (an EC1.5x≤0.3 μM is indicated by four stars (****))
- maximum fold (Fold) increase of Smn protein [1]: **** (a fold increase between >1.5 and ≤1.65 is indicated by four stars (****))
- EC (1.5-fold increase) [2]: < 0.1 µM
- melting point: 269 to 275 °C

Structure (SMILES): Cc1cn2cc(-c3cc(=O)n4cc(N5CCN(C)[C@H](C)C5)ccc4n3)cc(F)c2n1 [Compound 296, 7-[(3R)-3,4-dimethylpiperazin-1-yl]-2-(8-fluoro-2-methylimidazo[1,2-a]pyridin-6-yl)-4H-pyrido[1,2-a]pyrimidin-4-one]
- EC1.5x for Smn protein expression [1]: **** (an EC1.5x≤0.3 μM is indicated by four stars (****))
- maximum fold (Fold) increase of Smn protein [1]: ***** (a fold increase >1.65 is indicated by five stars (*****))
- EC (1.5-fold increase) [2]: < 0.1 µM
- melting point: 279 to 282 °C

Structure (SMILES): Cc1cn2cc(-c3cc(=O)n4cc(N5CCC(N(C)C)CC5)ccc4n3)cc(F)c2n1 [Compound 297, 7-[4-(dimethylamino)piperidin-1-yl]-2-(8-fluoro-2-methylimidazo[1,2-a]pyridin-6-yl)-4H-pyrido[1,2-a]pyrimidin-4-one]
- EC1.5x for Smn protein expression [1]: **** (an EC1.5x≤0.3 μM is indicated by four stars (****))
- maximum fold (Fold) increase of Smn protein [1]: ***** (a fold increase >1.65 is indicated by five stars (*****))
- EC (1.5-fold increase) [2]: < 0.1 µM
- melting point: 250 to 257 °C

Structure (SMILES): COc1ccc(-c2ccc3nc(N4CCC(N(C)C)CC4)cc(=O)n3c2)cc1F [Compound 298, 2-[4-(dimethylamino)piperidin-1-yl]-7-(3-fluoro-4-methoxyphenyl)-4H-pyrido[1,2-a]pyrimidin-4-one]
- maximum fold (Fold) increase of Smn protein [1]: *** (a fold increase between >1.35 and ≤1.5 is indicated by three stars (***))
- EC (1.5-fold increase) [2]: 0.3 to 1 µM
- melting point: 157 to 160 °C

Structure (SMILES): Cc1nc2c(F)cc(-c3cc(=O)n4cc(C5=CCNCC5)ccc4n3)cc2o1 [Compound 299, 2-(4-fluoro-2-methyl-1,3-benzoxazol-6-yl)-7-(1,2,3,6-tetrahydropyridin-4-yl)-4H-pyrido[1,2-a]pyrimidin-4-one]
- EC1.5x for Smn protein expression [1]: **** (an EC1.5x≤0.3 μM is indicated by four stars (****))
- maximum fold (Fold) increase of Smn protein [1]: ***** (a fold increase >1.65 is indicated by five stars (*****))
- EC (1.5-fold increase) [2]: < 0.1 µM
- melting point: 177 to 180 °C

Structure (SMILES): Cc1nc2c(F)cc(-c3cc(=O)n4cc(C5=CCN(C)CC5)ccc4n3)cc2o1 [Compound 300, 2-(4-fluoro-2-methyl-1,3-benzoxazol-6-yl)-7-(1-methyl-1,2,3,6-tetrahydropyridin-4-yl)-4H-pyrido[1,2-a]pyrimidin-4-one]
- EC1.5x for Smn protein expression [1]: **** (an EC1.5x≤0.3 μM is indicated by four stars (****))
- maximum fold (Fold) increase of Smn protein [1]: ***** (a fold increase >1.65 is indicated by five stars (*****))
- EC (1.5-fold increase) [2]: < 0.1 µM
- melting point: 178 to 181 °C

Structure (SMILES): COc1ccc(-c2cc(=O)n3cc(N4C[C@H]5CCCN[C@H]5C4)ccc3n2)cc1F [Compound 301, 2-(3-fluoro-4-methoxyphenyl)-7-[(4aR,7aR)-octahydro-6H-pyrrolo[3,4-b]pyridin-6-yl]-4H-pyrido[1,2-a]pyrimidin-4-one]
- maximum fold (Fold) increase of Smn protein [1]: * (A maximum fold increase of ≤1.2 is indicated by one star (*))
- EC (1.5-fold increase) [2]: 1 to 3 µM
- melting point: 194 to 201 °C
